From the supplement of paper PMC10307832

Key:
Assay in all cases: relative viability (nuclei count vs DMSO), 5 days (fraction); higher = more cells survive
[1] = compound: Cc1ccc(Nc2nccc(N(C)c3ccc4c(C)n(C)nc4c3)n2)cc1S(N)(=O)=O [Pazopanib] + Cc1cc(Nc2cc(N3CCN(C)CC3)nc(Sc3ccc(NC(=O)C4CC4)cc3)n2)n[nH]1 [Tozasertib] (partner 0.1 µM)
How it was run: (§1)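 Values are medians from duplicate plates. Each reflects relative viability, defined as the nuclei count of treated wells over that of vehicle wells. Lung cancer cell lines in 1536-well plates were pin-tool dosed one day after seeding with one drug alone or with a fixed anchor-drug dose plus five library-drug doses (not always all listed) in √10 steps, then fixed, stained and imaged at 4× after 5 days.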

[2] = compound: Cc1ccc(C(=O)Nc2ccc(CN3CCN(C)CC3)c(C(F)(F)F)c2)cc1C#Cc1cnc2cccnn12 [Ponatinib] + COc1cc2c(Oc3ccc(NC(=O)C4(C(=O)Nc5ccc(F)cc5)CC4)cc3F)ccnc2cc1OCCCN1CCOCC1 [Foretinib] (partner 0.25 µM)
How it was run: as §1

[3] = compound: Cc1ccc(Nc2nccc(N(C)c3ccc4c(C)n(C)nc4c3)n2)cc1S(N)(=O)=O [Pazopanib] + O=C(c1cc(Cc2n[nH]c(=O)c3ccccc23)ccc1F)N1CCN(C(=O)C2CC2)CC1 [Olaparib] (partner 8 µM)
How it was run: as §1

[4] = compound: Cc1ccc(C(=O)Nc2ccc(CN3CCN(C)CC3)c(C(F)(F)F)c2)cc1C#Cc1cnc2cccnn12 [Ponatinib] + CS(=O)(=O)N1CCN(Cc2cc3nc(-c4cccc5[nH]ncc45)nc(N4CCOCC4)c3s2)CC1 [Pictilisib] (partner 1 µM)
How it was run: as §1

Cell Line	relative viability ([1]; first compound 0.01 µM)	relative viability ([1]; first compound 0.03162 µM)	relative viability ([1]; first compound 0.1 µM)	relative viability ([1]; first compound 0.3162 µM)	relative viability ([1]; first compound 1 µM)	relative viability ([2]; first compound 0.002 µM)	relative viability ([2]; first compound 0.006325 µM)	relative viability ([2]; first compound 0.06325 µM)	relative viability ([2]; first compound 0.2 µM)	relative viability ([3]; first compound 0.01 µM)	relative viability ([3]; first compound 0.03162 µM)	relative viability ([3]; first compound 0.1 µM)	relative viability ([3]; first compound 0.3162 µM)	relative viability ([3]; first compound 1 µM)	relative viability ([4]; first compound 0.002 µM)	relative viability ([4]; first compound 0.006325 µM)	relative viability ([4]; first compound 0.06325 µM)	relative viability ([4]; first compound 0.2 µM)
NCI-H2087	0.298	0.27	0.279	0.281	0.256	1.12	0.864	1.01	0.868	0.72	0.7	0.745	0.549	0.568	0.879	0.831	0.933	0.787
BEN	0.481	0.463	0.582	0.516	0.482	0.549	0.663	0.457	0.674	1.06	1.29	1.11	0.943	0.931	0.544	0.62	0.601	0.462
LCLC-103H	0.456	0.464	0.46	0.467	0.479	0.745	0.755	0.775	0.688	0.723	0.699	0.769	0.79	0.799	0.543	0.592	0.636	0.572
EKVX	0.355	0.383	0.435	0.422	0.448	0.615	0.784	0.846	1.01	0.766	1.05	0.863	0.867	0.911	0.534	0.5	0.625	0.488
LXF-289	0.223	0.213	0.189	0.189	0.175	0.92	0.952	0.96	0.943	1.05	1.06	1.1	1.05	1.05	0.737	0.795	0.883	0.777
ABC-1	0.182	0.174	–	0.151	0.19	1.01	0.995	1.15	1.09	1.01	1.15	0.959	0.946	0.782	0.826	0.78	0.884	0.658
NCI-H661	0.343	0.355	0.349	0.347	0.344	1.03	0.98	0.993	0.998	0.781	0.782	0.792	0.691	0.71	0.404	0.406	0.389	0.482
NCI-H1650	0.47	0.382	0.443	0.539	0.312	1.36	1.07	1.55	1.31	0.895	0.838	0.723	0.852	0.844	0.601	0.722	0.642	0.558
NCI-H2085	0.738	0.848	0.828	0.786	0.776	0.989	0.836	0.879	0.832	0.821	0.759	0.796	0.704	0.713	0.489	0.477	0.451	0.488
NCI-H1944	–	0.234	0.258	0.252	0.257	0.876	0.856	1.05	0.859	0.425	0.353	0.424	0.418	0.475	0.319	0.407	0.403	0.374
LC-2-ad	0.469	0.444	0.516	0.467	0.471	0.915	0.859	0.966	0.842	0.796	0.684	0.705	0.778	0.682	0.353	0.239	0.191	0.207
COR-L 105	0.341	0.345	0.356	0.334	0.382	0.882	1.15	1.23	1.3	0.699	0.649	0.667	0.584	0.745	0.424	0.379	0.443	0.567
NCI-H1355	0.582	0.579	0.513	0.55	0.553	0.988	0.943	1.1	0.971	0.716	0.708	0.76	0.761	0.754	0.408	0.59	0.563	0.568
H3255	0.489	0.629	0.986	0.656	0.734	0.739	0.898	0.699	0.773	0.583	0.541	0.627	0.564	0.564	0.466	0.478	0.456	0.447
NCI-H1993	–	0.54	0.656	0.589	0.579	0.722	0.778	0.973	0.76	–	1.03	1.21	1.09	1.15	0.804	0.805	0.73	0.868
NCI-H1734	0.262	0.242	0.28	0.261	0.234	0.73	0.895	0.821	0.809	0.626	0.627	0.578	0.598	0.591	0.421	0.456	0.414	0.365
HOP-62	0.366	0.388	0.307	0.431	0.286	0.999	1	1	0.914	0.411	0.454	0.518	0.383	0.288	0.878	0.609	0.75	0.665
LOU-NH91	0.647	0.664	0.749	0.781	0.698	0.929	0.98	0.996	0.931	0.925	0.888	0.926	0.96	0.931	0.554	0.567	0.512	0.521

Cell Line	relative viability ([1]; first compound 0.01 µM)	relative viability ([1]; first compound 0.03162 µM)	relative viability ([1]; first compound 0.1 µM)	relative viability ([1]; first compound 0.3162 µM)	relative viability ([1]; first compound 1 µM)	relative viability ([2]; first compound 0.002 µM)	relative viability ([2]; first compound 0.006325 µM)	relative viability ([2]; first compound 0.06325 µM)	relative viability ([2]; first compound 0.2 µM)	relative viability ([3]; first compound 0.01 µM)	relative viability ([3]; first compound 0.03162 µM)	relative viability ([3]; first compound 0.1 µM)	relative viability ([3]; first compound 0.3162 µM)	relative viability ([3]; first compound 1 µM)	relative viability ([4]; first compound 0.002 µM)	relative viability ([4]; first compound 0.006325 µM)	relative viability ([4]; first compound 0.06325 µM)	relative viability ([4]; first compound 0.2 µM)
ChaGo-K-1	0.21	0.221	0.241	0.257	0.255	0.868	0.923	0.959	0.832	0.473	0.447	0.413	0.413	0.357	0.59	0.917	0.879	0.644
NCI-H2228	0.265	0.271	0.265	0.26	0.302	0.656	0.83	0.907	0.791	0.829	0.492	0.611	0.574	0.48	0.606	0.698	0.401	0.319
PC-3 [JPC-3]	0.947	0.918	0.916	0.915	0.756	0.947	1.01	1.15	1.03	–	1.15	1.18	1.11	1.02	0.653	0.708	0.885	0.875
NCI-H1437	0.414	0.42	0.408	0.412	0.375	1.22	1.22	1.31	1.28	0.644	0.645	0.649	0.653	0.551	0.445	0.479	0.495	0.406
NCI-H520	0.458	0.416	0.452	0.438	0.386	0.628	0.786	0.496	0.596	0.38	0.277	0.414	0.348	0.285	0.253	0.248	0.259	0.249
NCI-H1666	0.573	0.649	0.625	0.609	0.648	0.967	0.988	1.06	0.886	0.819	0.874	0.74	0.649	0.769	0.534	0.436	0.48	0.702
NCI-H1651	0.708	0.603	0.733	0.725	0.685	0.765	0.777	0.888	0.814	0.18	0.192	0.176	0.202	0.188	0.61	0.728	0.552	0.634
NCI-H1755	0.584	0.614	0.561	0.557	0.567	0.818	0.913	0.92	0.804	0.798	0.837	0.866	0.882	0.944	0.502	0.535	0.505	0.391
NCI-H727	0.599	0.543	0.622	0.631	0.704	0.781	0.839	0.64	0.869	0.672	–	0.595	0.612	0.629	0.367	0.514	0.356	0.333
HARA	0.09	0.119	0.603	0.0772	0.0838	0.859	0.855	0.963	0.878	0.938	0.778	0.958	1.26	0.795	0.443	0.478	0.498	0.296
NCI-H647	0.23	0.279	0.395	0.43	0.321	1.12	1.01	1.24	1.08	0.717	0.714	0.803	0.486	0.474	0.381	0.449	0.434	0.376
NCI-H23	0.373	0.341	0.359	0.458	0.392	0.949	1.04	1.04	0.832	0.315	0.343	0.297	0.321	0.36	0.588	0.592	0.571	0.44
LCLC-97TM1	0.222	0.221	0.185	0.195	0.166	0.915	0.967	0.944	0.675	–	0.313	0.534	0.293	0.252	–	0.243	–	0.221
EPLC-272H	–	0.352	0.167	0.21	0.241	0.735	0.784	0.912	0.416	0.87	0.792	1.06	0.944	0.845	0.29	0.373	0.342	0.335
NCI-H1915	0.455	0.422	0.468	0.407	0.399	1.03	1.12	0.996	1.01	0.257	0.241	0.275	0.229	0.227	0.892	0.98	1.03	1.03
NCI-H3122	0.408	0.382	0.435	0.394	0.426	0.977	0.981	1	0.943	0.7	0.572	0.607	0.636	0.599	0.635	0.7	0.635	0.73
NCI-H441	0.798	0.683	0.784	0.558	0.518	1.14	0.836	1.01	0.986	0.558	0.519	0.511	0.429	0.611	0.608	0.48	0.49	0.313
NCI-H358	0.109	0.0888	0.104	–	0.0878	0.734	0.731	1.02	0.784	0.757	0.662	0.629	0.639	0.599	0.318	0.429	0.369	0.331
